Data on six compounds can be found in patent publication US9138431B2, “Methods of treatment of histamine H-4 receptor-related pruritus” (BRIDGE PHARMA, INC., priority 2013, dated 2015).

Series [1] has as its system histamine-induced pruritus. Put plainly: Antipruritic activity, histamine-induced pruritus in mice. The series is classed as in vivo, CD-1 mice. The note with it: for Inhibition of histamine-induced pruritus (bouts of scratches): oral dosing 60 min before intradermal histamine 300 nmol, references 20 mg/kg, norketotifen escalating doses. As to the method:
Antipruritic effects were tested in vivo in CD-1 mice, females, 10-12 weeks, according to methods known in the art. The hair was clipped over the rostral part of the back at the interscapular level of the mice one day before the dosing. Before the testing, the mice were placed in individual clear plastic cages for at least one hour for acclimation. After fasting for 1.5 hours, the animals were dosed orally with the test article, dissolved in a vehicle consisting of 1% methylcellulose/water, 10 mL/kg body weight. Sixty minutes after the oral dosing, an intradermal injection of histamine (300 nmol in 20 μl phosphate buffered saline (PBS), pH 7.4) was administered. Immediately after the histamine injection, the bouts of scratches were counted for 40 min. Scratching induced by the histamine vehicle PBS served as control.
Norketotifen was tested in escalating doses and in a supramaximal dose of 100 mg/kg.

Series [2] relates to pruritus induced by interleukin-31 (IL-31). The note with it: recent study; cited from earlier work.
Series [3] has as its system human granulocytes (leukocytes; buffy coat). Put plainly: Inhibition of histamine release from human granulocytes (A23187-induced). The format is cell-based. The note with it: for IC50: Homo sapiens, Leukocyte, 20 min, histamine release induced by A23187 5 μM, 20 min/37° C., read-out: Inhibition of mediator release IC50. As to the method:
Histamine is excessively released from granulocytes in patients with pruritic diseases. The inhibition of histamine release from human granulocytes (leukocytes; buffy coat) by test articles was studied. Leukocytes were obtained from blood from healthy human volunteers and release of histamine was induced by incubation (20 min/37° C.) of the buffy coats with the calcium ionophore A23187 (5 μM) in the presence or absence of a test article. Histamine was analyzed by enzyme-immune assays, using commercially available kits and a microplate reader (MRX, Dynatech). The test articles were evaluated, in duplicate, at five concentrations.

Series [4] deals with human histamine H-1 Receptor (Homo sapiens (Human), UniProt P35367). Put plainly: Binding to histamine H-1 receptors. The note with it: read-out: Human H-1 receptors IC50, heading: Human H-1 receptors IC50. As to the method:
Affinities of the test compounds for peripheral human histamine H-1-receptors were assessed using receptor-binding assays. The specific binding of the radioactive ligand to the receptor was defined as the difference between total binding and nonspecific binding, determined in the presence of excess unlabeled ligand. Ki-values were determined according to the Cheng-Prusoff equation.

The nature of series [5]: Repeat-dose pharmacological and toxicological studies in dogs (sedation, tolerability). As to conditions: daily doses up to 20 mg/kg/day. The format is in vivo. The text has this:
Dogs vomit spontaneously for a variety of benign reasons—to expel unwanted content from their stomach, as a result of gastric irritation or in response to colonic irritation. In recent toxicological studies in dogs of various drugs, including isomeric norketotifen, vomiting occurred in both control groups and drug groups and may have been treatment-related, rather than drug-related. The unexpectedly low systemic toxicity of norketotifen and the isomers thereof is believed to be due to low systemic (plasma) concentrations, caused by the fact that norketotifen and the isomers thereof are not circulating in plasma but are accumulating in the skin, which is the largest organ in the body.

The nature of series [6]: Sedation in human subjects. The series is classed as in vivo. The note with it: doses of 5 mg and 10 mg.
Series [7] addresses human histamine H-4 Receptor (Homo sapiens (Human), UniProt Q9H3N8). Nature of the series: Binding to histamine H-4 receptors ([3H]-histamine ligand). As to conditions: Cheng-Prusoff, read-out: Human H-4 receptor affinity (Ki). As to the method: Affinities of the test compounds for peripheral human histamine H-4-receptors were assessed using receptor-binding assays. The specific binding of the radioactive ligand to the receptor was defined as the difference between total binding and nonspecific binding, determined in the presence of excess unlabeled ligand. [^3H]-histamine was used as the ligand in this study and the affinity values were determined according to the Cheng-Prusoff equation.

Series [8] is described as follows: Dermal drug accumulation after oral administration (plasma and skin PK). The series is classed as in vivo, beagle dogs. As to conditions: Day 28, oral 8.0 mg/kg/day hydrogen fumarate salt, dogs. As to the method: Five male beagle dogs, weighing 11.2-13.9 kg (2-4 years old) were used in the study. All animals were administered gelatin capsules containing oral doses of the test article 8.0 mg/kg/day as a hydrogen fumarate salt, equal to 5.6 mg/kg/day of the free base. The animals were dosed once daily for four consecutive weeks followed by daily observations for an additional two-week washout period.
Multiple plasma samples and skin biopsies were taken from each dog on Day 1 and Day 28 of drug administration. The plasma and skin samplings were performed at pre-dose, and at 2, 6, 12 and 24 hours post-dose. Plasma and skin samples were also taken intermittently at predetermined intervals during the 28-days dosing period and up to the last day of the study, which was Day 42. Blood samples were taken from v. Cephalica antebrachii. Skin biopsies were taken from the area between the mid ventral to lateral abdominal areas, using a 6 mm (diameter) skin biopsy device (Acu-Punch®, Acuderm® Inc., Fort Lauderdale, Fla. 33309). Multiple plasma and biopsy samples were obtained from each of 4 or 5 dogs. Subcutaneous fat deposits were carefully trimmed from the skin samples and the skin samples were weighed. All plasma and skin samples were kept
The plasma samples and skin biopsy samples were analyzed using LC/MS/MS methodology. All pharmacokinetic analyses were performed using Pharsight WinNonlin® Professional v5.2.1 software.

For series [9], the system named is histamine-induced pruritus. As to conditions: intradermal histamine, humans and mice; general statement; cited from earlier work.

Where two headings read alike, the source gives them in different places.

Sequence of human histamine H-1 Receptor (P35367 whole entry): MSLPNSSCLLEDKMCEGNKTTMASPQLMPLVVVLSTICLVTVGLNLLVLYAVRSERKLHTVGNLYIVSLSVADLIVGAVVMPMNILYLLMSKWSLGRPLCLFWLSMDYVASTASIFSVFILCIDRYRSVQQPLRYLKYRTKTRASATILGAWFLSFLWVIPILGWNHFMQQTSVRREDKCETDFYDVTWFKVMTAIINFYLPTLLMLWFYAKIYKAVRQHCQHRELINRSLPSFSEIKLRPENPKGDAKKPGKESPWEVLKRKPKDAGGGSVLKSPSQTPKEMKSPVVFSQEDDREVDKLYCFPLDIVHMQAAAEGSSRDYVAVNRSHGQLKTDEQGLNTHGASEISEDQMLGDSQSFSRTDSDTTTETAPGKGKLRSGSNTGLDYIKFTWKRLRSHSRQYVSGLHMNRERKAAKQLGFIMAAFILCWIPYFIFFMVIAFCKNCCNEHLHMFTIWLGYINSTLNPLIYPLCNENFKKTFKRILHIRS
Sequence of human histamine H-4 Receptor (Q9H3N8 whole entry): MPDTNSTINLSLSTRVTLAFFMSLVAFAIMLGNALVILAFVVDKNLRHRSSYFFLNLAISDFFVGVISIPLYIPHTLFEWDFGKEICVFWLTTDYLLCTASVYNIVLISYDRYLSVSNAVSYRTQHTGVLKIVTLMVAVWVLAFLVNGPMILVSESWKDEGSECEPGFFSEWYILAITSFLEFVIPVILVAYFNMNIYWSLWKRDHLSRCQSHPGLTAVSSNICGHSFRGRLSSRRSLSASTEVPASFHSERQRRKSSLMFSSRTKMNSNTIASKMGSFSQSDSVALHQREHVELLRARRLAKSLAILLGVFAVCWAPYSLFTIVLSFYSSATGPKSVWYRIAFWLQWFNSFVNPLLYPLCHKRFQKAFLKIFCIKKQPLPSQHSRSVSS

For `CN1CCN(C(=O)c2cc3cc(Cl)ccc3[nH]2)CC1` [JNJ7777120, reference compound], the “Inhibition of histamine-induced pruritus (bouts of scratches)” value in series [1] was “potently inhibited”. Moreover, the “Inhibition of IL-31-induced pruritus” value in series [2] was “failed to inhibit”.
For orientation: IC50 means the concentration needed to halve the response being measured. For `CN1CCC(=C2c3ccccc3CC(=O)c3sccc32)CC1` [Ketotifen, ketotifen, reference compound], the IC50 in series [3] is 91 µM.
Take `O=C1Cc2ccccc2C(=C2CCNCC2)c2ccsc21` [Norketotifen, norketotifen]: the IC50 in series [3] was found to be 9.2 µM; in [4] (listed as RS-NORKETOTIFEN) it was 11 nM. In addition, the “Potency relative to ketotifen as inhibitor of histamine release” value in series [3] (human inflammatory cells) is “approximately 10 times”. The “Inhibition of histamine-induced pruritus at supramaximal dose” value in series [1] (norketotifen 100 mg/kg oral) is “complete inhibition”. For the same compound, the entries for the “Inhibition of histamine-induced pruritus (bouts of scratches)” value in [1] and in series [1] (listed as norketotifen) were “dose-dependently inhibiting” and “potently inhibited”, respectively. Besides, the “Sedation or other adverse events, chronic dosing” value in [5] is “without causing sedation or other adverse events”. Moreover, in series [6], the Sedation entry is recorded as “do not produce sedation”.
In general, Ki refers to a measure of affinity in units of concentration, obtained from inhibition or displacement. As for `O=C(O)/C=C/C(=O)O.O=C1Cc2ccccc2C(=C2CCNCC2)c2ccsc21` [R-NORKETOTIFEN, R-norketotifen], the IC50 in series [4] worked out at 17 nM. In addition, the Ki in series [7] was 2300 nM. In addition, in series [8], the “MRT Plasma” value turned out to be 14.1 h, the “t1/2 Plasma” value was found to be 7.7 h, the “MRT Skin” value turned out to be 159.1 h and the “t1/2 Skin” value is 157.0 h.
With `O=C1Cc2ccccc2C(=C2CCNCC2)c2ccsc21` [S-NORKETOTIFEN, S-norketotifen], in series [4], the IC50 came out at 23 nM. The inhibitory constant (Ki) in series [7] came out at 1100 nM. Also, in series [8], the “MRT Plasma” value stood at 11.3 h, the “t1/2 Plasma” value amounted to 10.9 h, the “MRT Skin” value was 159.0 h and the “t1/2 Skin” value is 162.7 h.
Regarding `CC(C)(C(=O)O)c1ccc(C(O)CCCN2CCC(C(O)(c3ccccc3)c3ccccc3)CC2)cc1` (stereo not drawn) [fexofenadine], the “Inhibition of pruritus following histamine injections by H-1 inhibitors” value in [9] was “not inhibited”.
